Legend:
[1] = test system: FCA-induced thermal hyperalgesia in male SD rats; assay: FCA-induced thermal hyperalgesia (Hargreaves apparatus); format: in vivo, rat (Sprague-Dawley); conditions: Compound III 0.039 mg/kg p.o. alone; 0.5-4 h post-dose; Example 16, Table 19, FIG. 22
Method: The % reversal of mechanical/thermal hyperalgesia was calculated.

[2] = test system: Freund's Complete Adjuvant (FCA)-induced inflammatory mechanical hyperalgesia in male SD rats; assay: FCA-induced inflammatory mechanical hyperalgesia (Randall-Sellitto paw pressure);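 note: left hind paw withdrawal threshold (g) to rising pressure on an analgesymeter, FCA injected intraplantar 24 h earlier, thresholds taken before and 0.5, 1, 2 and 4 h after oral dosing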; conditions: Compound III 0.039 mg/kg p.o. alone
Method: Materials: FCA containing 1 mg/ml of heat killed and dried Mycobacterium tuberculosis (H37RA strain) emulsified in mineral oil and mannide mono-oleate; Male SD rats weighing 170-220 g; Paw Pressure Analgesymeter (37215, Ugo Basile, Comerio, Italy); Compound I potassium; and Diclofenac sodium
Naïve withdrawal thresholds of the left hind paw to an increasing pressure (g) stimulus were measured in rats using the analgesymeter. FCA was injected (30 μl) into the plantar region of left paw of rats to induce the inflammatory hyperalgesia. Mechanical hyperalgesia (24 h after FCA injection) was assessed by measuring hind paw withdrawal thresholds.
The post-dose paw withdrawal thresholds were measured at 0.5, 1, 2 & 4 h after oral administration. The percentage (%) reversal of mechanical hyperalgesia was calculated as per standard procedure.
Naïve withdrawal thresholds of the left hind paw to an increasing pressure (g) stimulus were measured in rats using the analgesymeter. Freund's Complete Adjuvant (FCA) was injected (30 μl) into the plantar region of left paw of rats to induce the inflammatory hyperalgesia. Mechanical hyperalgesia (24 h after FCA injection) was assessed both pre- & post-dosing of drugs by measuring hind paw withdrawal thresholds. […] The post-dose paw withdrawal thresholds were measured at 0.5, 1, 2 & 4 h after oral administration. The % reversal of mechanical hyperalgesia was calculated.
Naïve withdrawal thresholds of the left hind paw to an increasing pressure (g) stimulus were measured in rats using the analgesymeter.

[3] = test system: Streptozotocin (STZ)-induced diabetic peripheral neuropathic hyperalgesia in male SD rats; assay: Streptozotocin-induced diabetic peripheral neuropathic hyperalgesia; format: in vivo, rat (Sprague-Dawley); conditions: Compound III 0.04 mg/kg p.o. alone; 0.5-4 h post-dose; Example 18, Table 21, FIG. 24
Method: (§1) Streptozotocin (STZ)-induced neuropathic hyperalgesia in rats is a model to screen potential therapeutics for diabetic painful neuropathy in human patients. Streptozotocin was dissolved in freshly prepared cold citrate buffer (0.1 M, pH—4.4). Diabetes was induced in overnight fasted male SD rats (weighing 250-300 g) by a single intraperitoneal injection of Streptozotocin (Sigma, 55 mg/kg, i.p). […] On the day of the experiment (13th day after STZ injection) rats were assessed for mechanical hyperalgesia using Randall-Sellito paw pressure analgesymeter. Animals were weighed and grouped as described in Table 9.
Rats were orally dosed with vehicle, duloxetine hydrochloride, Compound I potassium salt and combination (Duloxetine+Compound I).
as §1, with “pH —4.4).” for “pH—4.4).”, “Sprague Dawley” for “SD”, “rats” for “rats (weighing 250-300 g)”, “analgesymeter.” for “analgesymeter. Animals were weighed and grouped as described in Table 9.”
Rats were orally dosed with vehicle, different doses of duloxetine hydrochloride, Compound II disodium salt and combinations (duloxetine+Compound II—simultaneously). The post-dose paw withdrawal thresholds were measured at 1, 2 & 4 h after oral administration. […] Animals were weighed and grouped as described in Table 16.
Rats were orally dosed with vehicle, different doses of duloxetine hydrochloride, Compound III disodium salt and combinations (duloxetine+Compound III—simultaneously). […] Animals were weighed and grouped as described in Table 21.

[4] = test system: MIA-osteoarthritis induced mechanical punctate allodynia in male SD rats; assay: MIA-induced mechanical punctate allodynia (dynamic von Frey); format: in vivo, rat (Sprague-Dawley); conditions: Compound III 0.132 mg/kg p.o. alone; 0.5-4 h post-dose; Example 19, Table 22, FIG. 25
Method: MIA was dissolved in 0.9% sterile saline and administered using a 26½ gauge needle. Contralateral knees were injected intra-articularly with 50 μl of 0.9% sterile saline. On the day of the experiment (20 h after MIA injection), rats were evaluated for pre-dose mechanical punctate allodynia to assess the effect of MIA. After regrouping the rats after randomization, the pre- & post-dose mechanical allodynia was assessed for both hind paws. […] The % reversal of punctate allodynia was calculated as per standard procedure. Animals were weighed and grouped as described in Table 22.

With Cn1c(=O)c2c(CC(=O)N=c3scc(-c4ccc(C(F)(F)F)c(F)c4F)n3COP(=O)(O)O)nsc2n(C)c1=O [Compound III, [4-[2,3-difluoro-4-(trifluoromethyl)phenyl]-2-{[(5,7-dimethyl-4,6-dioxo-4,5,6,7-tetrahydro[1,2]thiazolo[5,4-d]pyrimidin-3-yl)acetyl]imino}-1,3-thiazol-3(2H)-yl]methyl dihydrogen phosphate] the “maximal % reversal of thermal hyperalgesia” value [1] was 22%, the “maximal % reversal of mechanical hyperalgesia” value ([2]; Example 16, Table 19, FIG. 21) was 17% and the “maximal % reversal of mechanical hyperalgesia” value ([2]; Example 17, Table 20, FIG. 23) was 17%. The “maximal % reversal of hyperalgesia” value [3] was 19% and the “maximal % reversal of mechanical punctate allodynia” value [4] was 19%.

— US9532988B2, “Pharmaceutical composition comprising a TRPA1 antagonist and an analgesic agent” (GLENMARK PHARMACEUTICALS S.A., priority 2013, dated 2017)
